According to paper PMC11729428, “New Potent Inhibitor of Transforming Growth Factor-Beta (TGFβ) Signaling that is Efficacious against Microsatellite Stable Colorectal Cancer Metastasis in Combination with Immune Checkpoint Therapy in Mice” (ACS Pharmacology & Translational Science, 2024):
Values joined by “and” are separate entries in the source; they are usually repeats but may differ in a detail not shown here. Equal entries are not always repeated.

Columns and labels:
[1] = test system: Salmonella typhimurium strains TA98, TA100, TA1535 and TA1537; experiment: Ames test; type: cell-based
Method: The mutagenic potential of HYL001 was evaluated by the Ames test, assessing its ability to induce reverse mutations in the histidine operon of Salmonella typhimurium strains that allow for detection of both substitution mutations (TA100 and TA1535) and frameshift mutations (TA98 and TA1537). The mutagenic potential of HYL001 was tested at 6 concentrations (semilog 1–320 μg/mL) alone or in the presence of liver S9 fractions. […]
The Ames test was performed at Xenomatrix (Allschwil, Switzerland). Bacteria from the S. typhimurium […]
negative control, for 90 minutes in medium containing sufficient histidine to support approximately two cell divisions. After exposure, the cultures were diluted in pH indicator medium lacking histidine or tryptophan and aliquoted into 48 wells of a 384-well plate. Within two days, cells that have undergone reversion to amino acid prototrophy grow into colonies. The number of wells containing revertant colonies were counted by pH indicator colour change for each dose and compared to a solvent (negative) control. A dose dependent increase in the number of revertant colonies upon exposure to HYL001 would have indicated mutagenicity.

[2] = Plasma protein binding by rapid equilibrium dialysis, rat plasma
Method: (§1) 5. Methods for In vitro characterizations of HYL001 […]
(§2) Rapid equilibrium dialysis was performed in triplicates with a rapid equilibrium dialysis (RED) by Sai Life Sciences Lt. (Telangana, India). The RED device contains a dialysis membrane with a molecular weight cut -off […]
(§3) of 8,000 Da, separating two chambers for plasma and buffer, respectively. […]
(§4) were added to the plasma chamber, versus phosphate buffer saline (pH 7.4) to the buffer chamber. Dialysis was performed for 4 h with 100 RPM shaking at 37 °C. […]
(§5) compounds in plasma were either frozen immediately (T0 sample), or incubated at 37 °C for 4 h without dialysis (non-dialysed), respectively.
(§6) Following dialysis, an aliquot was removed from either chamber and diluted with equal volume of opposite matrix to nullify the matrix effect. Similarly, buffer was added to recovery and stability samples. Next, acetonitrile (containing internal standard, glipizide) was added to the mixtures for protein precipitation and vortexed for 5 minutes. The samples were centrifuged at 4000 RPM at 4 °C for 10 min and the supernatant was submitted for liquid chromatography mass spectrometry (LC-MS/MS) analysis. Samples were monitored for parent compound using multiple reaction monitoring (MRM) mode.
(§7) The peak area ratios (PAR, analyte versus internal standard) in plasma vs bufffer were used to determine the fraction of compound bound to plasma proteins. The following equation was used to determine the extent of plasma protein binding: percent free drug = 100% x (PARbuffer / PARplasma); percent bound drug = 100 - % free drug. Recovery was calculated as 100% x (PARplasma + PARbuffer)dialysed / (PARplasma)non-dialysed; stability as 100% x (PAR)non-dialysed / (PARplasma)frozen at T0. […]

ALK4 (ACVR1B) = biological target: T1, ALK4 (ACVR1B) (Homo sapiens, UniProt P36896); experiment: KINOMEscan competitive binding assay (Kd); details: analyses herein; read-out: Binding constant (Kd) ALK4 (ACVR1B)
T1 sequence (P36896 24-505): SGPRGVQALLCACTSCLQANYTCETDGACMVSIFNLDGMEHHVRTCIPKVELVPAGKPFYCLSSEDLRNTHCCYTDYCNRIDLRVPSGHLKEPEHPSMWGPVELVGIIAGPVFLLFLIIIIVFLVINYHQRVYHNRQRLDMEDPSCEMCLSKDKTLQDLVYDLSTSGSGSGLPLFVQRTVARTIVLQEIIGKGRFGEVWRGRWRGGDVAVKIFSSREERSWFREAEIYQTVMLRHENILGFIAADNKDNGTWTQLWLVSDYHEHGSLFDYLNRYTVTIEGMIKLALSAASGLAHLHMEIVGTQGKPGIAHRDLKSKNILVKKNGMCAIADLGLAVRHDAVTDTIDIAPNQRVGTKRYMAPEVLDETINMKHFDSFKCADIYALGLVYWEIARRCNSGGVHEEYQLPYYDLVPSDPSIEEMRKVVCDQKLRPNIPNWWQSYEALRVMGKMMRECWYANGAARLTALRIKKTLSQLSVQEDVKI
Method: (§8) 5. Methods for In vitro characterizations of HYL001
(§9) Kinase affinity and selectivity
(§10) The affinity of the ALK5 inhibitor HYL001 was determined for the ALK kinase family using the […]
(§11) DNA-tagged kinases and immobilized assay ligands, using quantitative PCR —run by Eurofins/DiscoveryX (Birmingham AL, USA). Dissociation constants were calculated by measuring the amount of kinase captured on the solid support as a function of the test compound concentration. Kd values were obtained by an 11 -point half-log dilution range of 0.5–30,000 nM of inhibitor for ALK1 (ACVRL1), ALK2 (ACVR1), ALK3 (BMPR1A), ALK4 (ACVR1B), ALK6 (BMPR1B), ACVR2B and TGFβ R2. In addition, this technology was used to assess selectivity towards a panel of 97 Kinases (scanEDGE) by Eurofins Panlabs (Grapevine TX, USA).
(§12) The strength of competitive binding, defined as the percentage of binding inhibition of kinases to assay ligan d, was visualized using the TREEspot software (DiscoverRx Corporation) and a selectivity score was calculated (the fraction of non -mutated kinases tested with competitive binding inhibition above threshold percentages 65 […]

ALK5 (TGFBR1) = ALK5 (TGFBR1) (Homo sapiens, UniProt P36897); experiment: KINOMEscan competitive binding assay (Kd); details: analyses herein; HYL001 run twice, average 22.5 nM; read-out: Binding constant (Kd) ALK5 (TGFBR1)
Method: as §8, §9, §10, §11, §12

[3] = Plasma protein binding by rapid equilibrium dialysis, human plasma; details: for fraction unbound at 4 h, 5 µM: plasma
Method: as §1, §2, §3, §4, §5, §6, §7

[4] = test system: mouse tumor organoids (MTOs), CRC liver metastases; parameters: method as in PMID 29443964; details: murine CRC liver metastasis model ref 5; cited from earlier work

Sequence of ALK5 (TGFBR1) (P36897 34-503): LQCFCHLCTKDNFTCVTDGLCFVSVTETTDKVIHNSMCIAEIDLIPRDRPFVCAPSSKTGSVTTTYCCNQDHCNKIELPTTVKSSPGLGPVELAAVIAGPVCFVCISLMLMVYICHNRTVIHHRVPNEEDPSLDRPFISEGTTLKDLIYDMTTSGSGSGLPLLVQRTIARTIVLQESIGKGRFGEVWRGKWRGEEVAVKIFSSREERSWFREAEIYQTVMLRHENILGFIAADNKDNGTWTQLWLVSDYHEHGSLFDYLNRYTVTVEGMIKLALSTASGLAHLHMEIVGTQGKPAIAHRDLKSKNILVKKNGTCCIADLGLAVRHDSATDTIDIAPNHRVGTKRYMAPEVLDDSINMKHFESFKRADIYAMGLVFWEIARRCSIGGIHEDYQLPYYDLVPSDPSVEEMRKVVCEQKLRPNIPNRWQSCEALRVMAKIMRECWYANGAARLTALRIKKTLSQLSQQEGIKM

## Cc1cccc(-c2nn3c(c2-c2ccnc4ccc(O)cc24)CCC3)n1 [HYL001, 4-(2-(6-Methylpyridin-2-yl)-5,6-dihydro-4H-pyrrolo[1,2-b]pyrazol-3-yl)quinolin-6-ol]
[1]; 6 concentrations 1–320 μg/mL, alone or with liver S9, all strains
  Positive mutagenic responses (Ames test): No positive mutagenic responses
[1]; TA98, w/o S9
  Dose dependency: No
  Mutagenic data points: No
[1]; TA98, with S9
  Dose dependency: No
  Mutagenic data points: No
[1]; TA100, w/o S9
  Dose dependency: No
  Mutagenic data points: No
[1]; TA100, with S9
  Dose dependency: No
  Mutagenic data points: No
[1]; TA1535, w/o S9
  Dose dependency: No
  Mutagenic data points: No
[1]; TA1535, with S9
  Dose dependency: No
  Mutagenic data points: No
[1]; TA1537, w/o S9
  Dose dependency: No
  Mutagenic data points: No
[1]; TA1537, with S9
  Dose dependency: No
  Mutagenic data points: No
[2]; rat plasma
  % Free fraction: 4.9%
[2]; rat plasma, 37 °C
  % Compound remaining at 4 hrs: 106.1%
[2]; rat, plasma (rapid equilibrium dialysis device), pH 7.4
  recovery at 4 h, 5 µM: 100%
[2]; rat, plasma, pH 7.4
  fraction unbound at 4 h, 5 µM: 0.049
ALK4 (ACVR1B)
  Kd: 0.013 µM
ALK5 (TGFBR1)
  Kd: 0.025 µM and 0.0225 µM
[3]; human plasma, 5 µM, n=3
  % Bound Mean ± SD: ~91%
[3]; human plasma, 37 °C
  % Compound remaining at 4 hrs: 101.1%
[3]; human, plasma (rapid equilibrium dialysis device), pH 7.4
  recovery at 4 h, 5 µM: 101%
[3]; human, pH 7.4, % Bound Mean ± SD, human plasma, 5 µM, n=3
  fraction unbound at 4 h, 5 µM: 0.084
[3]; human, pH 7.4, % Free fraction, human plasma
  fraction unbound at 4 h, 5 µM: 0.084

## Cc1cccc(-c2nn3c(c2-c2ccnc4ccc(C(N)=O)cc24)CCC3)n1 [galunisertib]
[4]
  Efficacious murine dose: 720–800 mg/kg twice daily (BID)
